Among the data in patent US8372885B2, “Organic compounds and their uses” (Novartis AG, priority 2008, dated 2013) are IC50 values, retold here.

The first experiment addresses T1, P. aeruginosa LpxC (Pseudomonas aeruginosa, UniProt P47205).
T1 construct: made in house
T1 sequence (P47205 1-303): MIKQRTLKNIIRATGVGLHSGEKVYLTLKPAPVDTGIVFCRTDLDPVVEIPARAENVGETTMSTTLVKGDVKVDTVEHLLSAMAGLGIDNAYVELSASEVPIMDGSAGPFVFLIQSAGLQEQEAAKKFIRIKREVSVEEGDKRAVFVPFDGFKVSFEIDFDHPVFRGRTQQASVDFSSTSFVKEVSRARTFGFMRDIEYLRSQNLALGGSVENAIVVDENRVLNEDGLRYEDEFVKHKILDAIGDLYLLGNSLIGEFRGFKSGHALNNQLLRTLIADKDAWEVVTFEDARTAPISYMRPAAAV
Briefly: biochemical. The conditions noted are these: 1 nM P. aeruginosa LpxC, 30 min pre-incubation, 2 μM UDP-3-O-(R-3-hydroxydecanoyl)-GlcNAc, pH 7.5, room temperature; read-out: IC50 (LpxC inhibitory activity). An excerpt:
The LC-MS/MS method for quantitation of LpxC product was developed using an Agilent 1200 Capillary HPLC system coupled to an Applied Biosystems MDS Sciex 4000QTRAP mass spectrometer. Both instruments are controlled using the Applied Biosystems MDS Sciex Analyst software. LpxC reaction product (UDP-3-O—(R-3-hydroxyacyl)-glucosamine) was produced by hydrolysis of LpxC substrate catalyzed by P. a. LpxC and purified using reversed phase chromatography on a Phenomenex Luna C18(2) 4.6×50 mm column. An LpxC product calibration curve was generated to evaluate the sensitivity and dynamic range of the LC-MS/MS method. Briefly, compounds are pre-incubated with 1 nM P. aeruginosa LpxC for 30 min. at room temperature. Reactions are initiated by the addition of 2 μM UDP-3-O—(R-3-hydroxydecanoyl)-GlcNAc. Reactions are conducted in a 96-well plate with a total volume of 100 μL in each well containing 50 mM Sodium phosphate pH 7.5, 0.005% Trition X-100 for 20 min at room temperature. After quenching with 1.8% HOAc (10 μL of a 20% HOAc added to each well), reaction mixtures are analyzed using the LC-MS/MS method and peak areas are transformed into product concentration using a LpxC product calibration curve. […] For IC50 determinations, peak areas are converted to percent inhibition in Microsoft Excel. Percent inhibition values are plotted vs. log compound concentration using XLfit. Data is fit to the four-parameter logistic equation using the non-linear regression algorithm in XLfit to return the IC50 and hill slope values.
As for `CCC#CCOc1ccc(C(=O)N[C@H](C(=O)NO)[C@@H](C)N)cc1` [Example 19], the IC50 was 7.6 nM.

As for `CC#CC(C)(C)Oc1ccc(C(=O)N[C@H](C(=O)NO)[C@@H](C)N)cc1` [Example 27], the IC50 is 73.3 nM.

For `CC(C)=CC#CCOc1ccc(C(=O)N[C@H](C(=O)NO)[C@@H](C)N)cc1` [Example 60], the IC50 is 8 nM.

Regarding `CC(C)(N)[C@H](NC(=O)c1ccc(OC/C=C/C#CCCO)cc1)C(=O)NO` [Example 15, N-((S)-2-Amino-1-hydroxycarbamoyl-2-methyl-propyl)-4-((E)-7-hydroxy-hept-2-en-4-ynyloxy)-benzamide], the 50% inhibitory concentration (IC50) worked out at 2 nM.

`CC(C)(N)[C@H](NC(=O)c1ccc(OCC#Cc2ccc(O)cc2)cc1)C(=O)NO` [Example 68]: the IC50 is 1900 nM.

Consider `CC#CCOc1ccc(C(=O)N[C@H](C(=O)NO)C(C)(C)N)cc1F` [Example 35], for which the IC50 is 2.6 nM.

For the molecule `C[C@@H](N)[C@H](NC(=O)c1ccc(OCC#CC2CCC2)cc1)C(=O)NO` [Example 58], the IC50 is 6.5 nM.

In the case of `CC#CCOc1ccc(-c2ccc(C(=O)N[C@H](C(=O)NO)C(C)(C)N)cc2)cc1` [Example 22], the IC50 worked out at 0.7 nM.

Take `CC#CCOc1ccc(C(=O)NC(C(=O)NO)C2(N)CC2)cc1` (stereo not shown) [Example 1, N-(1-(1-aminocyclopropyl)-2-(hydroxyamino)-2-oxoethyl)-4-(but-2-ynyloxy)benzamide]: the IC50 stood at 13.7 nM.

For `CC(C)(N)[C@H](NC(=O)c1ccc(OCC#Cc2ccc3c(c2)CCO3)cc1)C(=O)NO` [Example 67], the IC50 came out at 540 nM.

As for `CC(C)(N)[C@H](NC(=O)c1ccc(OCC#CC2CCC2)cc1)C(=O)NO` [Example 81], the IC50 came to 0.03 nM.

As to `C[C@@H](N)[C@H](NC(=O)c1ccc(OCC#Cc2ccoc2)cc1)C(=O)NO` [Example 61], the IC50 stood at 3 nM.

In the case of `C[C@@H](N)[C@H](NC(=O)c1ccc(OCC#Cc2ccccc2)cc1)C(=O)NO` [Example 17], the half-inhibitory concentration (IC50) is 1 nM.

`COc1ccc(C#CCOc2ccc(C(=O)N[C@H](C(=O)NO)C(C)(C)N)cc2)cc1` [Example 69]: the IC50 stood at 413 nM.

With `C[C@@H](N)[C@H](NC(=O)c1ccc(OCCCC#Cc2ccccc2)cc1)C(=O)NO` [Example 30], the IC50 turned out to be 35.6 nM.

For the molecule `CC(C)(N)[C@H](NC(=O)c1ccc(OCC#CC2CC2)cc1)C(=O)NO` [Example 38], the IC50 came out at 0.4 nM.

Regarding `CC#CCSc1ccc(C(=O)NC(C(=O)NO)C(C)(C)N)cc1` (stereo not shown) [Example 52], the IC50 was determined as 4.4 nM.

For `CC(C)(N)[C@H](NC(=O)c1ccc(OCC#CC2=CCCC2)cc1)C(=O)NO` [Example 11, N-((S)-2-Amino-1-hydroxycarbamoyl-2-methyl-propyl)-4-(3-cyclopent-1-enyl-prop-2-ynyloxy)-benzamide], the IC50 came out at 1 nM.

Consider `CCCCOc1ccc(C(=O)N[C@H](C(=O)NO)C(C)(C)N)cc1` [Example 37], for which the IC50 was determined as 4 nM.

Turning to `CC#CCOc1ccc(C(=O)N[C@H](C(=O)NO)C(C)(C)N)c(O)c1` [Example 74], the IC50 came out at 3 nM.

Turning to `CC#CCNc1ccc(C(=O)N[C@H](C(=O)NO)[C@@H](C)N)cc1` [Example 42], the IC50 is 27.3 nM.

Consider `CCCCC#C/C=C/COc1ccc(C(=O)N[C@H](C(=O)NO)C(C)(C)N)cc1` [Example 64], for which the IC50 stood at 0.2 nM.

For the molecule `CC(C)(N)[C@H](NC(=O)c1ccc(OCC#Cc2ccccc2)cc1)C(=O)NO` [Example 80], the IC50 came out at 1 nM.

Consider `CC#CC(C)Oc1ccc(C(=O)N[C@H](C(=O)NO)[C@@H](C)N)cc1` (stereo partly shown) [Example 32], for which the IC50 was found to be 231 nM.

For the molecule `COCC#C/C=C/COc1ccc(C(=O)N[C@H](C(=O)NO)C(C)(C)N)cc1` [Example 71], the IC50 is 1 nM.

As to `CC#CCOc1c(Cl)cc(C(=O)NC(C(=O)NO)C(C)(C)N)cc1Cl` (stereo not shown) [Example 40], the IC50 was found to be 34.6 nM.

In the case of `CC#CCCOc1ccc(C(=O)NC(C(=O)NO)C(C)(C)N)cc1` (stereo not shown) [Example 25], the IC50 was found to be 35.1 nM.

As to `CC(C)(C)C#CCOc1ccc(C(=O)NC(C(=O)NO)C(C)(C)N)cc1` (stereo not shown) [Example 4, N-(3-amino-1-(hydroxyamino)-3-methyl-1-oxobutan-2-yl)-4-(4,4-dimethylpent-2-ynyloxy)benzamide], the half-inhibitory concentration (IC50) is 23 nM.

As for `CC(C)(N)[C@H](NC(=O)c1ccc(OC/C=C/C#CCO)cc1)C(=O)NO` [Example 72], the IC50 worked out at 1 nM.

Regarding `C[C@@H](N)[C@H](NC(=O)c1ccc(OCCCC2CC2)cc1)C(=O)NO` [Example 50], the IC50 turned out to be 13.1 nM.

`C[C@@H](N)[C@H](NC(=O)c1ccc(C#CCOc2ccccc2)cc1)C(=O)NO` [Example 18]: the IC50 turned out to be 7.6 nM.

For the molecule `CC(C)(N)[C@H](NC(=O)c1ccc(OCCC2CC2)cc1)C(=O)NO` [Example 83], the IC50 is 8 nM.

For `COCC#CCOc1ccc(C(=O)N[C@H](C(=O)NO)[C@@H](C)N)cc1` [Example 44], the IC50 came out at 56.9 nM.

Take `C#CCOc1ccc(C(=O)N[C@H](C(=O)NO)[C@@H](C)N)cc1` [Example 29]: the IC50 stood at 38.9 nM.

In the case of `C=C/C=C/COc1ccc(C(=O)NC(C(=O)NO)C(C)(C)N)cc1` (stereo not shown) [Example 41], the IC50 came out at 2.1 nM.

In the case of `C#C/C=C/COc1ccc(C(=O)N[C@H](C(=O)NO)[C@@H](C)N)cc1` [Example 46], the half-maximal inhibitory concentration (IC50) turned out to be 5.5 nM.

For the molecule `CC#CCOc1ccc(C(=O)NC(C(=O)NO)C(C)(C)N)cc1Cl` (stereo not shown) [Example 55], the IC50 is 9.9 nM.

Regarding `CC(C)(N)[C@H](NC(=O)c1ccc(OCC#CC2=CCC(O)CC2)cc1)C(=O)NO` (stereo partly shown) [Example 76], the 50% inhibitory concentration (IC50) worked out at 0.03 nM.

In the case of `CC#CCOc1ccc(C(=O)N[C@@H](CCCN)C(=O)NO)cc1` [Example 10, N-((S)-4-Amino-1-hydroxycarbamoyl-butyl)-4-but-2-ynyloxy-benzamide], the IC50 was found to be 2700 nM.

In the case of `C#CC(C)(C)Oc1ccc(C(=O)NC(C(=O)NO)C(C)(C)N)cc1` (stereo not shown) [Example 24], the half-maximal inhibitory concentration (IC50) amounted to 1.4 nM.

`CC(C)=CCOc1ccc(C(=O)NC(C(=O)NO)C(C)(C)N)cc1` (stereo not shown) [Example 47]: the IC50 came out at 3.7 nM.

On to `C=C(C)C#CCOc1ccc(C(=O)N[C@H](C(=O)NO)C(C)(C)N)cc1` [Example 43], for which the IC50 is 1 nM.

Regarding `C[C@@H](N)[C@H](NC(=O)c1ccc(OCC#CC2CC2)cc1)C(=O)NO` [Example 34], the IC50 was 6 nM.

Regarding `CCC#CCOc1ccc(C(=O)NC(C(=O)NO)C(C)(C)N)cc1` (stereo not shown) [Example 21], the IC50 was 1 nM.

In the case of `CC(C)(N)[C@H](NC(=O)c1ccc(OCC#Cc2ccccn2)cc1)C(=O)NO` [Example 79], the IC50 worked out at 1 nM.

Regarding `CC#CCOc1c(F)cc(C(=O)NC(C(=O)NO)C(C)(C)N)cc1F` (stereo not shown) [Example 56], the half-inhibitory concentration (IC50) is 4.1 nM.

For `CC(C)(C)C#C/C=C/COc1ccc(C(=O)N[C@H](C(=O)NO)C(C)(C)N)cc1` [Example 63], the IC50 came to 0.05 nM.

On to `CC(C)(N)C(NC(=O)c1ccc(OCC#CC2CCCC2)cc1)C(=O)NO` (stereo not shown) [Example 45], for which the IC50 worked out at 2.2 nM.

For the molecule `CC(C)(N)[C@H](NC(=O)c1ccc(OCC#Cc2cccc(CO)c2)cc1)C(=O)NO` [Example 77], the IC50 was found to be 0.2 nM.

In the case of `CC#CCOc1ccc(C(=O)NC(C(=O)NO)C(C)(C)N)cc1C` (stereo not shown) [Example 54], the half-inhibitory concentration (IC50) amounted to 16.7 nM.

In the case of `CC(C)(N)[C@H](NC(=O)c1ccc(OCC#CC2=CCNCC2)cc1)C(=O)NO` [Example 62], the 50% inhibitory concentration (IC50) was 14 nM.

In the case of `Cc1ccc(C#CCOc2ccc(C(=O)N[C@H](C(=O)NO)C(C)(C)N)cc2)cc1` [Example 66], the IC50 is 1240 nM.

For `C[C@@H](N)[C@H](NC(=O)c1ccc(OCCC2CC2)cc1)C(=O)NO` [Example 49], the IC50 came out at 24.6 nM.

Regarding `CC#CCOc1ccc(C(=O)N[C@H](C(=O)NO)C(C)(C)O)cc1` [Example 20], the IC50 was 6.5 nM.

Still in this experiment, the particulars now being: IC50 (LpxC inhibitory activity), 1 nM P. aeruginosa LpxC, 30 min pre-incubation, 2 μM UDP-3-O-(R-3-hydroxydecanoyl)-GlcNAc, pH 7.5, room temperature.
`CC#CCOc1ccc(C(=O)N[C@H](C(=O)NO)[C@@H](N)C(F)(F)F)cc1` [Example 6, N-((2S,3R)-3-amino-4,4,4-trifluoro-1-(hydroxyamino)-1-oxobutan-2-yl)-4-(but-2-ynyloxy)benzamide] yielded a half-inhibitory concentration (IC50) of 13.5 nM.

`CC#CCOc1ccc(C(=O)N[C@H](C(=O)NO)[C@H](N)C(C)C)cc1` [Example 33] showed an IC50 of 268 nM.

`CC#CCOc1ccc(C(=O)N[C@H](C(=O)NO)[C@@H](C)N)cc1` [Example 16] registered an IC50 of 8.7 nM.

On to `CC#CCOc1ccc(C(=O)N[C@H](C(=O)NO)[C@H](N)C2CC2)cc1` [Example 5, N-((1R,2S)-1-amino-1-cyclopropyl-3-(hydroxyamino)-3-oxopropan-2-yl)-4-(but-2-ynyloxy)benzamide], for which inhibition was half-maximal at 124 nM (IC50).

By IC50 is commonly meant the concentration at which inhibition is half-maximal.
